According to patent publication US5242902A, “Defensin peptide compositions and methods for their use” (The Regents of the University of California, priority 1989, dated 1993):

Tests used:
[1] = test system: Nakano mouse lens epithelial cells; experiment: In vitro cell growth assay (3H-thymidine incorporation, cell counts), serum free; format: cell-based
Experimental: (§1) Cell growth assays were performed as previously described in Reid et al., (1987), J. Biol. Chem. 262:229-233. Briefly, cells were grown to confluence in 96-well plates in media plus serum and arrested in G0/G1 by either serum starvation for 2-days (epithelial cells) or 8-10 day serum depletion followed by serum starvation for 1-day (fibroblasts). At this point the media was removed and new media with the desired factors was added. Approximately 16 hours later ^3 -thymidine was added and 20 to 28 hours later the cells were washed, lysed and the amount of ^3 H-thymidine incorporated into DNA was measured. In some cases, actual cell counts were performed.
(§2) The growth stimulatory properties of human defensins HNP-1, HNP-2, HNP-3 and rabbit defensins NP-1 and NP-5 in a serum free growth assay system were tested. SIRC rabbit corneal epithelial cells, Nakano mouse lens epithelial cells, and NIH 3T3 fibroblasts were utilized in these studies.

[2] = test system: panel of organisms in stationary growth phase; settings: cited from earlier work
[3] = test system: SIRC rabbit corneal epithelial cells; experiment: In vitro cell growth assay (3H-thymidine incorporation), serum free; format: cell-based
Experimental: as §1, §2

[4] = test system: NIH 3T3 fibroblasts; experiment: as above; format: cell-based
Experimental: as §1, §2

[5] = test system: capsaicin-treated corneas; format: in vivo
Experimental: Capsaicin-treated corneas from adult rabbits were used to determine the effects of topically applied defensins on corneal re-epithelialization. Capsaicin depletes neuropeptides which have an effect on wound healing (data not shown). The rabbits received 0.4 ml of lidocaine diluted in 2.6 ml of sterile saline delivered subcutaneously between the cranial aspect of the interscapular space. After 10 minutes, 50 mg/kg of capsaicin (100 mg/ml) was delivered through a 11/2 inch 25 gauge needle. Repeat injections of capsaicin was given once a day for four additional days. Three weeks from the last injection bilateral corneal defects were created as described below and the eyes treated topically with test solutions. The cornea was treated with two drops of test solution after creation of the epithelial defect. Upon completion of surgery, the rabbit was returned to its cage onto a warm heating pad. Sequential corneal photographs were taken after installation of fluoroscein and the rate of epithelial wound healing determined.
The effects of topically applied HNP-1 on the epithelial wound healing of neuropeptide depleted rabbit corneas was investigated. Corneas of rabbits treated systemically with capsaicin have impaired epithelial healing. In this model, capsaicin (50 mg/kg) was injected subcutaneously for 5 consecutive days into New Zealand white rabbits. Lidocaine was delivered subcutaneously into the capsaicin injection site 10 minutes prior to the first injection. Three weeks after the injections, the animals were anesthetized (ketamine/xylazine), topical anesthetic applied to the cornea, and the epithelium debrided circumferentially to the limbal margin of clear cornea. Absolute alcohol on microcellulose sponges and a dull #15 Bard Parker blade were used to remove the epithelium. Care was taken that no alcohol ran over the clear corneal edge to damage the limbal epithelium. The corneas were stained with fluorescein and photographed twice daily to monitor re-epithelialization. […]

Row | Substance | actual cell number ([1]; cell counts (FIG. 6)) | stimulatory effect on cell number compared with insulin and EGF ([1]; insulin and EGF at concentrations which elicit maximal response (FIG. 6)) | growth promoting response with bovine serum albumin ([1]; 5 mg/ml BSA added at varying times after stimulation (FIGS. 7 and 8), preliminary) | relative antimicrobial potency among defensins [2] | stimulatory properties (DNA synthesis) ([3]; corneal epithelial cells (FIG. 9)) | effect at higher concentrations ([3]; corneal epithelial cells, higher concentrations) | suppression at higher concentrations ([4]; 3T3 fibroblast cells, higher concentrations) | stimulatory properties (DNA synthesis) ([4]; 3T3 fibroblasts, presence and absence of insulin (FIG. 10)) | time to re-epithelialization of treated eye ([5]; 100 μg/ml topical 4 times a day, control eye healed at 6.5 days) [days] | re-epithelialization of treated versus fellow control eye ([5]; 100 μg/ml topical, one rabbit) | effect on the cornea or conjunctiva (tolerability) ([5]; topical, 4 times a day, 40 or 100 μg/ml in sterile water, four rabbits)
1 | HNP-3: human neutrophil defensin peptide; sequence in Table 1 | increase in actual cell number | surpassed that of insulin and EGF |  |  |  |  |  |  |  |  | 
2 | HNP-1: human neutrophil defensin peptide isolated from PMN; sequence in Table 1 |  |  | response curve is shifted to the right and that the plateau phase is extended | most potent antimicrobial properties | stimulatory | suppression observed at higher concentrations | not observed | stimulatory | 5.5 | both corneas re-epithelialized simultaneously | no deleterious effect on the cornea or conjunctiva
